According to ChEMBL document CHEMBL6182931, “Chemical Evolution of Aplithianine Class of Serine/Threonine Kinase Inhibitors” (J Med Chem, 2025):
pIC50: −log10 of the molar value. Activity calls are given as the source filed them. The rule behind the calls is not given here.

Tested on: not listed separately
Experiment: Inhibition of DNAJB1-PKAcalpha (unknown origin) using biotinylated-peptide substrate CREB incubated for 45 mins in presence of ATP and cAMP by ELISA
Set-up: species or system Homo sapiens

Row | pIC50 | SMILES
1 | < 5.00 | Cc1ncc(C2=CN(c3ncnc4[nH]ccc34)CCS2)o1
2 | 7.17 | O=C(N[C@H]1CCNC1)C1=CN(c2ncnc3[nH]ccc23)CCS1
3 | 5.89 | NCCNC(=O)C1=CN(c2ncnc3[nH]cnc23)CCS1
4 | 5.96 | CCCc1cc2c(N3C=C(c4ccnc5[nH]ccc45)SCC3)ncnc2s1
5 | 5.28 | Cc1c[nH]c2ncnc(N3C=C(c4cc[nH]n4)SCC3)c12
6 | 7.43 | Fc1cncnc1N1C=C(c2ccnc3[nH]ccc23)SCC1
7 | < 5.00 | Cc1c[nH]c2ncnc(N3C=C(c4ccnn4C)SCC3)c12
8 | 7.01 | N[C@@H]1CCN(C(=O)C2=CN(c3ncnc4[nH]ccc34)CCS2)C1
9 | 6.70 | C[C@@H]1[C@H](N)CCCN1C(=O)C1=CN(c2ncnc3[nH]ccc23)CCS1
10 | 6.74 | NC1(CNC(=O)C2=CN(c3ncnc4[nH]ccc34)CCS2)CCC1
11 | 6.14 | CN[C@@H]1CCCN(C(=O)C2=CN(c3ccnc4[nH]cc(C)c34)CCS2)C1
12 | 6.96 | NC[C@H](NC(=O)C1=CN(c2ncnc3[nH]ccc23)CCS1)c1ccccc1
13 | 5.66 | C1=C(c2ccnc3[nH]ccc23)SCCN1c1cc(-c2ccsc2)ncn1
14 | 6.77 | NCC1(NC(=O)C2=CN(c3ncnc4[nH]ccc34)CCS2)CCC1
15 | 7.22 | C[C@@H]1CCN(C(=O)C2=CN(c3ncnc4[nH]ccc34)CCS2)C[C@@H]1N
16 | 6.55 | Cc1c[nH]c2nccc(N3C=C(C(=O)N4CCC[C@H](N)C4)SCC3)c12
17 | < 5.00 | Cc1noc(C)c1C1=CN(c2ncnc3[nH]cc(C)c23)CCS1
18 | 6.89 | N[C@@H]1CCCC[C@@H]1NC(=O)C1=CN(c2ncnc3[nH]ccc23)CCS1
19 | 6.24 | O=C(C1=CN(c2ncnc3[nH]ccc23)CCS1)N1CCc2nc[nH]c2C1
20 | 7.09 | N[C@H]1CCCN(C(=O)C2=CN(c3ncnc4[nH]ccc34)CCS2)C1
21 | 6.16 | O=C(N[C@@H]1CCCNC1)C1=CN(c2ncnc3[nH]ccc23)CCS1
22 | 6.80 | NCCNC(=O)C1=CN(c2ccnc3[nH]ccc23)CCS1
23 | 5.54 | C1=C(c2cnco2)SCCN1c1ncnc2[nH]ccc12
24 | 7.37 | Cc1c[nH]c2nccc(N3C=C(C(=O)N4CCC[C@@](C)(N)C4)SCC3)c12
25 | 5.10 | CC(C)(C)c1cc(N2C=C(c3ccnc4[nH]ccc34)SCC2)ncn1
26 | 6.09 | FC(F)(F)COc1cc(N2C=C(c3ccnc4[nH]ccc34)SCC2)ncn1

Row | pIC50 | SMILES
27 | 5.85 | Cc1ncoc1C1=CN(c2ncnc3[nH]cnc23)CCS1
28 | 6.68 | NCCCCNC(=O)C1=CN(c2ncnc3[nH]ccc23)CCS1
29 | < 5.00 | Cc1cc(N2C=C(c3ccnc4[nH]ccc34)SCC2)nc(N2CCCCC2)n1
30 | 5.70 | C[C@H]1[C@H](N)CCCN1C(=O)C1=CN(c2ncnc3[nH]ccc23)CCS1
31 | < 5.00 | Cc1ncc(C2=CN(c3ncnc4[nH]cc(C)c34)CCS2)o1
32 | < 5.00 | Cn1nccc1C1=CN(c2ncnc3[nH]ccc23)CCS1
33 | 6.74 | C[C@@H](N)CNC(=O)C1=CN(c2ncnc3[nH]ccc23)CCS1
34 | 6.51 | O=C(C1=CN(c2ncnc3[nH]ccc23)CCS1)N1C[C@H]2CCCN[C@H]2C1
35 | 6.59 | CN[C@@H]1CCCN(C(=O)C2=CN(c3ncnc4[nH]cnc34)CCS2)C1
36 | 5.54 | NCCCCCCNC(=O)C1=CN(c2ncnc3[nH]ccc23)CCS1
37 | < 5.00 | O=C(NCCNC(=O)c1ccccc1)C1=CN(c2ncnc3[nH]cnc23)CCS1
38 | 5.26 | Cc1c[nH]c2ncnc(N3C=C(c4cnn(C)c4)SCC3)c12
39 | 5.74 | C1=C(c2cnco2)SCCN1c1ncnc2[nH]cnc12
40 | 6.51 | CN[C@H]1CCCN(C(=O)C2=CN(c3ncnc4[nH]ccc34)CCS2)C1
41 | 6.30 | Cc1c[nH]c2nccc(N3C=C(C(=O)N4CCC[C@](C)(N)C4)SCC3)c12
42 | 6.39 | N[C@@H]1c2ccccc2C[C@@H]1NC(=O)C1=CN(c2ncnc3[nH]ccc23)CCS1
43 | 6.40 | CN[C@H]1CCCN(C(=O)C2=CN(c3ncnc4[nH]cc(C)c34)CCS2)C1
44 | 6.24 | CN[C@@H]1CCCN(C(=O)C2=CN(c3ccnc4[nH]ccc34)CCS2)C1
45 | 6.38 | C[C@]1(N)CCCN(C(=O)C2=CN(c3ccnc4[nH]ccc34)CCS2)C1
46 | < 5.00 | C1=C(c2cccnc2)SCCN1c1ncnc2[nH]ccc12
47 | < 5.00 | CC(=O)NCCNC(=O)C1=CN(c2ncnc3[nH]cnc23)CCS1
48 | 5.70 | C1=C(c2cc[nH]n2)SCCN1c1ncnc2[nH]ccc12
49 | 7.43 | Cc1c[nH]c2nccc(N3C=C(C(=O)N4CCC[C@@H](N)C4)SCC3)c12
50 | < 5.00 | C1=C(c2cc[nH]n2)SCCN1c1ncnc2[nH]cnc12
51 | 5.16 | Cc1noc(C)c1C1=CN(c2ncnc3[nH]cnc23)CCS1
52 | 6.43 | CN(CCN)C(=O)C1=CN(c2ncnc3[nH]ccc23)CCS1

Row | pIC50 | SMILES
53 | 6.74 | C[C@H](N)CNC(=O)C1=CN(c2ncnc3[nH]ccc23)CCS1
54 | < 5.00 | Cc1cc(N2C=C(c3ccnc4[nH]ccc34)SCC2)nc(C(C)(C)C)n1
55 | < 5.00 | C1=C(c2cccnc2)SCCN1c1ncnc2[nH]cnc12
56 | 6.19 | O=C(N[C@H](c1ccccc1)[C@@H]1CCCN1)C1=CN(c2ncnc3[nH]ccc23)CCS1
57 | 6.28 | C[C@H](CN)NC(=O)C1=CN(c2ncnc3[nH]ccc23)CCS1
58 | 6.11 | CN[C@H]1CCCN(C(=O)C2=CN(c3ncnc4[nH]cnc34)CCS2)C1
59 | 6.22 | C1=C(c2ccnc3[nH]ccc23)SCCN1c1cc(N2CCOCC2)ncn1
60 | 5.28 | Cc1ncc(C2=CN(c3ncnc4[nH]cnc34)CCS2)o1
61 | 6.44 | NCCCNC(=O)C1=CN(c2ncnc3[nH]ccc23)CCS1
62 | < 5.00 | Cc1c[nH]c2ncnc(N3C=C(c4cccnc4)SCC3)c12
63 | 6.30 | N[C@H]1CCN(C(=O)C2=CN(c3ncnc4[nH]ccc34)CCS2)C1
64 | < 5.00 | Cc1noc(C)c1C1=CN(c2ncnc3[nH]ccc23)CCS1
65 | < 5.00 | C1=C(c2ccncn2)SCCN1c1ccnc2[nH]ccc12
66 | 6.04 | NCCCCCNC(=O)C1=CN(c2ncnc3[nH]ccc23)CCS1
67 | 6.18 | O=C(NC[C@@H]1CCCCN1)C1=CN(c2ncnc3[nH]ccc23)CCS1
68 | 7.21 | C[C@@]1(N)CCCN(C(=O)C2=CN(c3ncnc4[nH]cnc34)CCS2)C1
69 | 5.59 | N[C@H]1CCCC[C@H]1NC(=O)C1=CN(c2ncnc3[nH]ccc23)CCS1
70 | 5.96 | O=C(C1=CN(c2ncnc3[nH]ccc23)CCS1)N1C[C@@H]2CCCN[C@@H]2C1
71 | 6.64 | O=C(C1=CN(c2ncnc3[nH]ccc23)CCS1)N1CCn2ccnc2C1
72 | 6.42 | O=C(N[C@@H]1CCNC1)C1=CN(c2ncnc3[nH]ccc23)CCS1
73 | 6.28 | CN[C@H]1CCCN(C(=O)C2=CN(c3ccnc4[nH]cc(C)c34)CCS2)C1
74 | 8.10 | N[C@@H]1CCCN(C(=O)C2=CN(c3ncnc4[nH]ccc34)CCS2)C1
75 | 6.46 | O=C(NC[C@@H]1CCCN1)C1=CN(c2ncnc3[nH]ccc23)CCS1
76 | 5.14 | Cn1nccc1C1=CN(c2ncnc3[nH]cnc23)CCS1
77 | 5.52 | Cc1cc(N2C=C(c3ccnc4[nH]ccc34)SCC2)nc(N(C)C)n1
78 | 5.66 | C[C@]1(N)CCCN(C(=O)C2=CN(c3ncnc4[nH]cnc34)CCS2)C1

Row | pIC50 | SMILES
79 | 6.57 | CN[C@H]1CCCN(C(=O)C2=CN(c3ccnc4[nH]ccc34)CCS2)C1
80 | 6.24 | N[C@H]1CCCCN(C(=O)C2=CN(c3ncnc4[nH]ccc34)CCS2)C1
81 | 7.06 | CN[C@@H]1CCCN(C(=O)C2=CN(c3ncnc4[nH]ccc34)CCS2)C1
82 | 8.22 | C[C@H]1C[C@@H](N)CN(C(=O)C2=CN(c3ncnc4[nH]ccc34)CCS2)C1
83 | 6.42 | CC(C)(N)CNC(=O)C1=CN(c2ncnc3[nH]ccc23)CCS1
84 | 6.38 | CN(C[C@H]1CCCCN1)C(=O)C1=CN(c2ncnc3[nH]ccc23)CCS1
85 | 6.89 | N[C@@H]1CCCCN(C(=O)C2=CN(c3ncnc4[nH]ccc34)CCS2)C1
86 | 6.42 | O=C(NC[C@H]1CCCN1)C1=CN(c2ncnc3[nH]ccc23)CCS1
87 | 6.48 | C1=C(c2ccnc3[nH]ccc23)SCCN1c1cc(OCc2ccccc2)ncn1
88 | 5.92 | CN(C[C@@H]1CCCCN1)C(=O)C1=CN(c2ncnc3[nH]ccc23)CCS1
89 | 5.64 | N[C@@H]1CCCC[C@H]1NC(=O)C1=CN(c2ncnc3[nH]ccc23)CCS1
90 | 5.35 | Cc1ncoc1C1=CN(c2ncnc3[nH]ccc23)CCS1
91 | 5.57 | Cn1cc(C2=CN(c3ncnc4[nH]cnc34)CCS2)cn1
92 | 7.89 | O=C(N[C@@H](c1ccccc1)[C@@H]1CCCN1)C1=CN(c2ncnc3[nH]ccc23)CCS1
93 | 5.62 | FC(F)(F)c1cc(N2C=C(c3ccnc4[nH]ccc34)SCC2)ncn1
94 | 7.72 | N[C@@H]1CCCN(C(=O)C2=CN(c3ccnc4[nH]ccc34)CCS2)C1
95 | 6.96 | C[C@@H](CN)NC(=O)C1=CN(c2ncnc3[nH]ccc23)CCS1
96 | 7.18 | O=C(N[C@H]1CCCNC1)C1=CN(c2ncnc3[nH]ccc23)CCS1
97 | 7.09 | O=C(N[C@H](c1ccccc1)[C@H]1CCCN1)C1=CN(c2ncnc3[nH]ccc23)CCS1
98 | 6.17 | O=C(NC[C@H]1CCCCN1)C1=CN(c2ncnc3[nH]ccc23)CCS1
99 | 5.74 | Cc1c[nH]c2ncnc(N3C=C(c4cnco4)SCC3)c12
100 | 7.17 | N[C@H]1CCCN(C(=O)C2=CN(c3ccnc4[nH]ccc34)CCS2)C1
101 | < 5.00 | Cc1ncoc1C1=CN(c2ncnc3[nH]cc(C)c23)CCS1

Row | SMILES | pIC50
102 | CN[C@@H]1CCCN(C(=O)C2=CN(c3ncnc4[nH]cc(C)c34)CCS2)C1 | 7.30

Tested on: OVCAR-4
Experiment: Antiproliferative activity against human OVCAR-4 cells assessed as growth inhibition
Format: functional, cell-based

Row | SMILES | Activity
103 | C1=C(C2=CN(c3ncnc4[nH]ccc34)CCS2)CCNC1 | inactive

Tested on: MOLT-4
Experiment: Antiproliferative activity against human MOLT-4 cells assessed as growth inhibition
Format: functional

Row | SMILES | Activity
104 | C1=C(C2=CN(c3ncnc4[nH]ccc34)CCS2)CCNC1 | Active

Tested on: MDA-MB-468
Experiment: Antiproliferative activity against human MDA-MB-468 cells assessed as growth inhibition
Format: functional, cell-based

Row | SMILES | Activity
105 | C1=C(C2=CN(c3ncnc4[nH]ccc34)CCS2)CCNC1 | Active

Tested on: LOX IMVI
Experiment: Antiproliferative activity against human LOX IMVI cells assessed as growth inhibition
Format: functional

Row | SMILES | GI50
106 | C1=C(C2=CN(c3ncnc4[nH]ccc34)CCS2)CCNC1 | > 1000 nM

Tested on: SR
Experiment: Antiproliferative activity against human SR cells assessed as growth inhibition
Format: functional

Row | SMILES | Activity
107 | C1=C(C2=CN(c3ncnc4[nH]ccc34)CCS2)CCNC1 | Active

Tested on: NCI/ADR-RES
Experiment: Antiproliferative activity against human NCI/ADR-RES cells assessed as growth inhibition
Format: functional, cell-based

Row | SMILES | Activity
108 | C1=C(C2=CN(c3ncnc4[nH]ccc34)CCS2)CCNC1 | inactive
